{"source": "patent US6936628B2", "about": "“Oral administration of epothilones” (Bristol-Myers Squibb Company, priority 2002, dated 2005)", "key": {"[1]": {"conditions": "cited from earlier work"}, "in vitro": {"experiment": "in vitro", "conditions": "human, Caco-2"}, "[2]": {"system": "tubulin isolated from calf brain", "format": "biochemical"}, "[3]": {"system": "Pat-7 human ovarian carcinoma", "conditions": "mouse, in vivo, iv"}, "[4]": {"system": "Pat-26 human pancreatic carcinoma", "conditions": "mouse, in vivo, iv"}, "[5]": {"system": "human ovarian carcinoma xenograft A2780", "experiment": "Antitumor activity by parenteral administration to rats, A2780 xenograft", "format": "in vivo, nude rats", "experimental": "The required number of animals needed to detect a meaningful response were pooled at the start of the experiment and each was given a subcutaneous implant of a tumor fragment (≈50 mg) with a 13-gauge trocar. For treatment of early-stage tumors, the animals were again pooled before distribution to the various treatment and control groups. For treatment of animals with advanced-stage disease, tumors were allowed to grow to the pre-determined size window (tumors outside the range were excluded) and animals were evenly distributed to various treatment and control groups. Treatment of each animal was based on individual body weight. Treated animals were checked daily for treatment related toxicity/mortality. Each group of animals was weighed before the initiation of treatment (Wt1) and then again following the last treatment dose (Wt2). The difference in body weight (Wt2−Wt1) provides a measure of treatment-related toxicity.\nTumor response was determined by measurement of tumors with a caliper twice a week, until the tumors reach a predetermined “target” size of 1 gm. Tumor weights (mg) were estimated from the formula: Tumor weight=(length×width^2)÷2\nAntitumor activity was evaluated at the maximum tolerated dose (MTD) which is defined as the dose level immediately […] which excessive toxicity (i.e. more than one death) occurred. The MTD was frequently equivalent to OD. When death occurred, the day of death was recorded. Treated mice dying prior to having their tumors reach target size were considered to have died from drug toxicity. No control mice died bearing tumors less than target size. Treatment groups with more than one death caused by drug toxicity were considered to have had excessively toxic treatments and their data were not included in the evaluation of a compound's antitumor efficacy.\nTumor response end-point was expressed in terms of tumor growth delay (T−C value), defined as the difference in time (days) required for the treated tumors (T) to reach a predetermined target size compared to those of the control group (C).\nTo estimate tumor cell kill, the tumor volume doubling time was first calculated with the formula: TVDT=Median time (days) for control tumors to reach target size−Median time (days) for control tumors to reach half the target size and Log cell kill=T−C÷(3.32×TVDT)\nCompound A was evaluated versus the human ovarian carcinoma xenograft A2780 grown in nude rats. […] In comparison, Compound B produced 3.3 LCK at its MTD (2.4 mg/kg/inj, IV, every 8 days×2)."}, "HCT116/VM46 cells": {"system": "HCT116/VM46 cells", "experiment": "In vitro cytotoxicity assay (MTS), HCT116/VM46", "format": "cell-based, human", "conditions": "concentration for 50% growth inhibition, HCT116/VM46 versus sensitive HCT116"}, "[6]": {"system": "HCT116/VM46 human colon carcinoma", "parameters": "species or system nude mice", "conditions": "mouse, in vivo, iv"}, "[7]": {"system": "A2780Tax human ovarian carcinoma", "parameters": "species or system nude mice", "conditions": "mouse, in vivo, iv"}, "[8]": {"system": "Pat-21 paclitaxel resistant breast cancer model", "parameters": "species or system nude mice", "conditions": "mouse, in vivo, iv"}}, "note": "Values joined by “and” are separate entries in the source; they are usually repeats but may differ in a detail not shown here. Equal values may be shown once."}
{"molecule": "OC[C@@H](O)[C@@H](O)[C@H](O)[C@H](O)CO", "note": "[mannitol]", "values": [{"measurement": "extent of absorption in humans (% absorbed)", "setting": "[1]", "result": 15, "unit": "%"}, {"measurement": "Papp", "setting": "in vitro", "result": 3.2, "unit": "×10⁻⁶ cm/s"}]}
{"molecule": "C/C(=C\\c1csc(C)n1)[C@@H]1C[C@@H]2O[C@]2(C)CCC[C@H](C)[C@H](O)[C@@H](C)C(=O)C(C)(C)[C@@H](O)CC(=O)N1", "note": "(relative stereo) [Compound B, [1S-[1R*,3R*(E),7R*,10S*,11R*,16S*]]-7,11-dihydroxy 8,8,10,12,16-pentamethyl-3-[1-methyl-2-(2-methyl-4-thiazolyl)ethenyl-17-oxa-4-azabicyclo[14.1.0]heptadecane-5,9-dione]", "values": [{"measurement": "Polymerization Potency, EC0.01", "setting": "[2]", "result": 3500, "unit": "nM"}, {"measurement": "Ratio of Polymerization Potency of Analog/Paclitaxel", "setting": "[2]", "result": 0.4}, {"measurement": "LCK", "setting": "[3]", "result": 1.9}, {"measurement": "LCK (gross log cell kill)", "setting": "[4]", "result": "1.2 and 1.2^3"}, {"measurement": "LCK", "setting": "[5]; A2780 in nude rats, IV, every 8 days×2, at MTD", "result": 3.3}, {"measurement": "MTD", "setting": "[5]; nude rats bearing A2780, IV, every 8 days×2", "result": 2.4, "unit": "mg/kg/inj"}]}
{"molecule": "CC(=O)O[C@H]1C(=O)[C@@]2(C)[C@H]([C@H](OC(=O)c3ccccc3)[C@]3(O)C[C@H](OC(=O)[C@H](O)[C@@H](NC(=O)c4ccccc4)c4ccccc4)C(C)=C1C3(C)C)[C@]1(OC(C)=O)CO[C@@H]1C[C@@H]2O", "note": "[Paclitaxel]", "values": [{"measurement": "R/S, or resistance ratio", "setting": "HCT116/VM46 cells", "result": 155, "unit": "fold"}, {"measurement": "LCK (gross log cell kill)", "setting": "[6]", "result": "0.55^3"}, {"measurement": "LCK (gross log cell kill)", "setting": "[7]", "result": "0.8^3"}, {"measurement": "LCK (gross log cell kill)", "setting": "[3]", "result": "0.8^3"}, {"measurement": "LCK (gross log cell kill)", "setting": "[8]", "result": "0.3^3"}, {"measurement": "LCK (gross log cell kill)", "setting": "[4]", "result": 0.4}]}
{"molecule": "CN/C(=N/CCSCc1nc[nH]c1C)NC#N", "note": "[cimetidine]", "values": [{"measurement": "extent of absorption in humans (% absorbed)", "setting": "[1]", "result": 95, "unit": "%"}, {"measurement": "Papp", "setting": "in vitro", "result": 4.9, "unit": "×10⁻⁶ cm/s"}]}
{"molecule": "C/C(=C\\c1csc(C)n1)[C@@H]1C[C@@H]2O[C@@H]2CCC[C@H](C)[C@H](O)[C@@H](C)C(=O)C(C)(C)[C@@H](O)CC(=O)O1", "note": "[BMS-212188 (Epothilone A), Epothilone A]", "values": [{"measurement": "Polymerization Potency, EC0.01", "setting": "[2]", "result": 2000, "unit": "nM"}, {"measurement": "Ratio of Polymerization Potency of Analog/Paclitaxel", "setting": "[2]", "result": 0.4}]}
{"molecule": "CCCC(=O)Nc1ccc(OCC(O)CNC(C)C)c(C(C)=O)c1", "note": "(stereo not drawn) [acebutalol]", "values": [{"measurement": "extent of absorption in humans (% absorbed)", "setting": "[1]", "result": 40, "unit": "%"}]}
{"molecule": "Epothilone B [BMS-205535 (Epothilone B)]", "values": [{"measurement": "Polymerization Potency, EC0.01", "setting": "[2]", "result": 1800, "unit": "nM"}, {"measurement": "Ratio of Polymerization Potency of Analog/Paclitaxel", "setting": "[2]", "result": 0.3}]}
